According to US20230111310A1, “CARBOXYLIC ACID DERIVATIVE-SUBSTITUTED IMINO ARYL COMPOUND, PREPARATION METHOD THEREFOR, HERBICIDAL COMPOSITION AND USE THEREOF” (Qingdao Kingagroot Chemical Compound Co., Ltd., priority 2020, published 2023):

Assays:
Experiment in all cases: Weeding effect in post-emergence stage
Type in all cases: in vivo
Echinochloa crusgalli = conditions: for Weeding effect in post-emergence stage, Echinochloa crusgalli (level): fresh weight control rate level; for Weeding effect in post-emergence stage, Echinochloa crusgalli: level of fresh weight growth control rate
Summary of the method: (§1)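 Read-out is growth control rate, counted 3 weeks post-spray and averaged over three repeats. Greenhouse plants at the 2-3 leaf stage received spray-tower application at 500, 250, 125, 60, 30, 15 or 7.5 g/ha, with methyl oleate EC (1.5 liter/ha) and Tween 80 added.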

Setaria viridis = conditions: for Weeding effect in post-emergence stage, Setaria viridis (level): fresh weight control rate level; for Weeding effect in post-emergence stage, Setaria viridis: level of fresh weight growth control rate
Summary of the method: as §1

Alopecurus japonicus = conditions: for Weeding effect in post-emergence stage, Alopecurus japonicus (level): fresh weight control rate level; for Weeding effect in post-emergence stage, Alopecurus japonicus: level of fresh weight growth control rate
Summary of the method: as §1

Abutilon theophrasti = conditions: for Weeding effect in post-emergence stage, Abutilon theophrasti (level): fresh weight control rate level; for Weeding effect in post-emergence stage, Abutilon theophrasti: level of fresh weight growth control rate
Summary of the method: as §1

Eleusine indica = conditions: for Weeding effect in post-emergence stage, Eleusine indica (level): fresh weight control rate level; for Weeding effect in post-emergence stage, Eleusine indica: level of fresh weight growth control rate
Summary of the method: as §1

Digitaria sanguinalis = conditions: for Weeding effect in post-emergence stage, Digitaria sanguinalis (level): fresh weight control rate level; for Weeding effect in post-emergence stage, Digitaria sanguinalis: level of fresh weight growth control rate
Summary of the method: as §1

Compound | Weeding effect in post-emergence stage, Echinochloa crusgalli (level) (Echinochloa crusgalli; Dose 15 g/ha) | Weeding effect in post-emergence stage, Setaria viridis (level) (Setaria viridis; Dose 15 g/ha) | Weeding effect in post-emergence stage, Alopecurus japonicus (level) (Alopecurus japonicus; Dose 15 g/ha) | Weeding effect in post-emergence stage, Abutilon theophrasti (level) (Abutilon theophrasti; Dose 15 g/ha) | Weeding effect in post-emergence stage, Eleusine indica (level) (Eleusine indica; Dose 15 g/ha) | Weeding effect in post-emergence stage, Digitaria sanguinalis (level) (Digitaria sanguinalis; Dose 15 g/ha) | Weeding effect in post-emergence stage, Echinochloa crusgalli (Echinochloa crusgalli; Dose 15 g/ha) | Weeding effect in post-emergence stage, Setaria viridis (Setaria viridis; Dose 15 g/ha) | Weeding effect in post-emergence stage, Alopecurus japonicus (Alopecurus japonicus; Dose 15 g/ha) | Weeding effect in post-emergence stage, Abutilon theophrasti (Abutilon theophrasti; Dose 15 g/ha) | Weeding effect in post-emergence stage, Eleusine indica (Eleusine indica; Dose 15 g/ha) | Weeding effect in post-emergence stage, Digitaria sanguinalis (Digitaria sanguinalis; Dose 15 g/ha) | further results
CC(C)SC(=O)C(C)O/N=C/c1cc(-n2c(=O)cc(C(F)(F)F)n(C)c2=O)c(F)cc1Cl (stereo not drawn) [Compound 400] | 5 (Level 5: growth control rate is above 85%) | 5 (Level 5: growth control rate is above 85%) | 4 (Level 4: growth control rate is greater than or equal to 60% and less than 85%) | 5 (Level 5: growth control rate is above 85%) | 5 (Level 5: growth control rate is above 85%) | 5 (Level 5: growth control rate is above 85%) | – | – | – | – | – | – | –
CC(O/N=C/c1cc(-n2c(=O)cc(C(F)(F)F)n(C)c2=O)c(F)cc1Cl)C(=O)OCCN(C)C (stereo not drawn) [Compound 448] | 5 (Level 5: growth control rate is above 85%) | 5 (Level 5: growth control rate is above 85%) | 5 (Level 5: growth control rate is above 85%) | 5 (Level 5: growth control rate is above 85%) | 5 (Level 5: growth control rate is above 85%) | 5 (Level 5: growth control rate is above 85%) | – | – | – | – | – | – | –
COCCOC(=O)[C@@H](C)O/N=C/c1cc(-n2c(=O)cc(C(F)(F)F)n(C)c2=O)c(F)cc1Cl [230(R)] | – | – | – | – | – | – | 5 (Level 5: growth control rate is above 85%) | 5 (Level 5: growth control rate is above 85%) | 5 (Level 5: growth control rate is above 85%) | 5 (Level 5: growth control rate is above 85%) | 5 (Level 5: growth control rate is above 85%) | 5 (Level 5: growth control rate is above 85%) | –
COC(=O)[C@@H](C)O/N=C/c1cc(-n2c(=S)cc(C(F)(F)F)n(C)c2=S)c(F)cc1Cl [351(R)] | – | – | – | – | – | – | – | – | – | – | – | – | Weeding effect in post-emergence stage, Echinochloa crusgalli (level) (Echinochloa crusgalli; Dose 60 g/ha): 5 (Level 5: growth control rate is above 85%); Weeding effect in post-emergence stage, Setaria viridis (level) (Setaria viridis; Dose 60 g/ha): 5 (Level 5: growth control rate is above 85%); Weeding effect in post-emergence stage, Alopecurus japonicus (level) (Alopecurus japonicus; Dose 60 g/ha): 5 (Level 5: growth control rate is above 85%); Weeding effect in post-emergence stage, Abutilon theophrasti (level) (Abutilon theophrasti; Dose 60 g/ha): 5 (Level 5: growth control rate is above 85%); Weeding effect in post-emergence stage, Eleusine indica (level) (Eleusine indica; Dose 60 g/ha): 5 (Level 5: growth control rate is above 85%); Weeding effect in post-emergence stage, Digitaria sanguinalis (level) (Digitaria sanguinalis; Dose 60 g/ha): 5 (Level 5: growth control rate is above 85%)
C[C@@H](O/N=C/c1cc(-n2c(=O)cc(C(F)(F)F)n(C)c2=O)c(F)cc1Cl)C(=O)OCC#N [226(R)] | – | – | – | – | – | – | 5 (Level 5: growth control rate is above 85%) | 5 (Level 5: growth control rate is above 85%) | 5 (Level 5: growth control rate is above 85%) | 5 (Level 5: growth control rate is above 85%) | 5 (Level 5: growth control rate is above 85%) | 5 (Level 5: growth control rate is above 85%) | –
COC(=O)C(CCCl)O/N=C/c1cc(-n2c(=O)cc(C(F)(F)F)n(C)c2=O)c(F)cc1Cl (stereo not drawn) [Compound 497] | 5 (Level 5: growth control rate is above 85%) | 5 (Level 5: growth control rate is above 85%) | 5 (Level 5: growth control rate is above 85%) | 5 (Level 5: growth control rate is above 85%) | 5 (Level 5: growth control rate is above 85%) | 5 (Level 5: growth control rate is above 85%) | – | – | – | – | – | – | –
